Key:
[1] = tested on: green peach aphid (Myzus persicae); experiment: Test B.2: control of green peach aphid through systemic means, artificial diet under membrane; format: in vivo
Excerpt: For evaluating control of green peach aphid (Myzus persicae) through systemic means the test unit consisted of 96-well-microtiter plates containing liquid artificial diet under an artificial membrane.
The compounds or mixtures were formulated using a solution containing 75 wt % water and 25 wt % DMSO. Different concentrations of formulated compounds or mixtures were pipetted into the aphid diet, using a custom built pipetter, at two replications.
(§1) For experimental mixtures in these tests identical volumes of both mixing partners at the desired concentrations respectively, were mixed together.
After application, 5-8 adult aphids were placed on the artificial membrane inside the microtiter plate wells. The aphids were then allowed to suck on the treated aphid diet and incubated at 23±1° C., 50±5% RH for 3 days. Aphid mortality and fecundity was then visually assessed.

[2] = tested on: vetch aphid (Megoura viciae); experiment: Test B.1: control of vetch aphid on broad bean leaf disks, contact or systemic; format: in vivo
Description: For evaluating control of vetch aphid (Megoura viciae) through contact or systemic means the test unit consisted of 24-well-microtiter plates containing broad bean leaf disks.
The compounds or mixtures were formulated using a solution containing 75 wt % water and 25 wt % DMSO. Different concentrations of formulated compounds or mixtures were sprayed onto the leaf disks at 2.5 μl, using a custom built micro atomizer, at two replications.
as §1
After application, the leaf disks were air-dried and 5-8 adult aphids placed on the leaf disks inside the microtiter plate wells. The aphids were then allowed to suck on the treated leaf disks and incubated at 23±1° C., 50±5% RH (relative humidity) for 5 days. Aphid mortality and fecundity was then visually assessed.

[3] = mixing partner alone, ppm 0.4 + 0, 3 days
[4] = mixing partner alone, ppm 40 + 0, 3 days
[5] = mixing partner alone, ppm 0.08 + 0, 5 days
[6] = mixing partner alone, ppm 0.08 + 0, 3 days

With `CC1(C)C(C=C(Cl)Cl)C1C(=O)OC(C#N)c1cccc(Oc2ccccc2)c1` (stereo not drawn) [Alphacypermethrin, alpha-cypermethrin] the “Average Control %” value ([1]; mixing partner alone, ppm 10 + 0, 3 days) was 50%.

`Cc1cc(C)cc(CC(NC2=NCCS2)c2cccc(C)c2C)c1` (stereo not drawn) [C.33, (4,5-Dihydro-thiazol-2-yl)-[2-(3,5-dimethyl-phenyl)-1-(2,3-dimethyl-phenyl)-ethyl]-amine] was tested, and the “Average Control %” value ([2]; compound C.33 alone, ppm 0 + 0.8, 5 days) was 0%, the “Average Control %” value ([1]; compound C.33 alone, ppm 0 + 0.8, 3 days) was 0% and the “Average Control %” value ([1]; compound C.33 alone, ppm 0 + 4, 3 days) was 0%. For the same molecule, the “Average Control %” value ([1]; compound C.33 alone, ppm 0 + 20, 3 days) was 0% and the “Average Control %” value ([1]; compound C.33 alone, ppm 0 + 20, 3 days, listed as test compound) was 50%.

`CNC(=O)c1cc(Cl)cc(C)c1NC(=O)c1cc(Br)nn1-c1ncccc1Cl` [Chlorantraniliprole, chlorantraniliprole] was tested, and the “Average Control %” value [1, 3] was 50%.

`N#Cc1nn(-c2c(Cl)cc(C(F)(F)F)cc2Cl)c(N)c1[S+]([O-])C(F)(F)F` (stereo not drawn) [Fipronil, fipronil] was tested, and the “Average Control %” value ([2]; mixing partner alone, ppm 2 + 0, 5 days) was 25% and the “Average Control %” value [1, 3] was 0%.

For `CC1=NNC(=O)N(/N=C/c2cccnc2)C1` [Pymetrozine, pymetrozine], the “Average Control %” value [1, 4] was 50%.

For `CC(C)(C)c1ccc(CSc2cnn(C(C)(C)C)c(=O)c2Cl)cc1` [Pyridaben, pyridaben], the “Average Control %” value [1, 4] was 0%.

With `CN1COCN(Cc2cnc(Cl)s2)/C1=N\[N+](=O)[O-]` [Thiamethoxam, thiamethoxam] the “Average Control %” value [2, 5] was 0% and the “Average Control %” value [1, 6] was 0%.

With abamectin the “Average Control %” value [2, 5] was 0% and the “Average Control %” value [1, 6] was 0%.

Reference: patent US8153560B2, “Pesticidal active mixtures comprising aminothiazoline compounds” (BASF SE, priority 2007, dated 2012)
